Results as given in patent US20220047529A1, “METHODS OF INHIBITION” (University of Canberra, priority 2018, published 2022).

Test system: form-deprivation myopia
Assay: Form-deprivation myopia (FDM) development in chicks with a translucent diffuser; axial length by A-scan ultrasonography
Settings: four days; for axial length: diffuser-treated eye
[1] = daily intravitreal injection of 1.5 mM solution
[2] = daily intravitreal injection of 15 mM solution
[3] = daily intravitreal injection of 1.5 mM solution (10 μL), mean±SEM
[4] = daily intravitreal injection of 15 mM solution (10 μL), mean±SEM
[5] = twice daily topical administration of 1.5 mM solution, mean±SEM
[6] = twice daily topical eye drops of 15 mM solution, mean±SEM
[7] = twice daily topical eye drops of 15 mM solution

Experimental: 30 white male cockerel chickens were randomly assigned to one of six treatment groups as defined below (n=5 per group) and were treated for a four day period. • Chicks fitted with a translucent diffuser over their left eye to induce form-deprivation myopia (FDM); • Chicks fitted with a translucent diffuser over their left eye and daily intravitreal injection of a 1.5 mM (0.028%) dopamine solution prepared according to Example 1; • Chicks fitted with a translucent diffuser over their left eye and twice daily topical administration of a 1.5 mM (0.028%) dopamine solution prepared according to Example 1; • Chicks fitted with a translucent diffuser over their left eye and daily intravitreal injection of a 15 mM (0.28%) dopamine solution prepared according to Example 1; • Chicks fitted with a translucent diffuser over their left eye and twice daily topical administration of a 15 mM (0.28%) dopamine solution prepared according to Example 1; • Age-matched untreated control group.
For the drug treatments, the compositions were administered under light isoflurane anesthesia using intravitreal injection or topical administration.
Intravitreal injection was performed as follows: Using a 30 gauge needle attached to a Hamilton syringe, 10 μL (0.01 mL) of the test composition was injected into the vitreous chamber of the eye once daily.
Topical administration was performed as follows: Two drops of 40 μL (two drops of 0.04 mL, or 0.08 mL total) of the test composition was applied to the corneal surface of the eye using an eye drop dispenser. Drops were applied to the chicks twice daily.
To determine changes in the rate of eye growth and the development of myopia, changes in axial length was assessed. […] Axial length, anterior chamber depth and vitreal chamber depth were measured using A-scan ultrasonography (Biometer AL-100; Tomey Corporation, Nagoya, Japan). Statistical analysis of changes in axial length, anterior chamber depth and vitreal chamber depth between groups involved a one-way ANOVA test followed by a Student's T-test with Bonferroni correction. All data are presented as the mean±the standard deviation of the mean (SEM).

CN1[C@@H]2CC[C@H]1C[C@@H](OC(=O)C(CO)c1ccccc1)C2 (stereo partly drawn) [atropine]
effect on excessive axial elongation associated with form-deprivation myopia (in words) (daily intravitreal injection of 0.25 mM atropine alone): significantly inhibited | axial length (twice daily topical administration of 50 mM atropine solution alone): 8.79±0.09 mm

NCCc1ccc(O)c(O)c1 [dopamine, 2-(3,4-dihydroxyphenyl)ethylamine]
protection relative to FDM-only [1]: 78% | protection relative to FDM-only [2]: 78% | axial length [3]: 8.82±0.02 mm | axial length [4]: 8.82±0.11 mm | axial length [5]: 8.97±0.08 mm | axial length [6]: 8.84±0.07 mm | protection relative to FDM-only [7]: 72%

[2H]C([2H])(N)C([2H])([2H])c1ccc(O)c(O)c1 [dopamine-1,1,2,2-d4, 2-(3,4-dihydroxyphenyl)ethyl-1,1,2,2,d4-amine]
effect on excessive axial elongation associated with form-deprivation myopia (in words) (daily intravitreal injection of 0.15 mM dopamine-1,1,2,2-d4 alone): significantly inhibited | protection relative to FDM-only [1]: 92% | protection relative to FDM-only [2]: 103% | axial length [3]: 8.77±0.11 mm | axial length [4]: 8.72±0.06 mm | axial length [5]: 8.88±0.10 mm | axial length [6]: 8.85±0.14 mm | protection relative to FDM-only [7]: 71%

CN1CCN(CC(=O)N2c3ccccc3C(=O)Nc3cccnc32)CC1 [pirenzepine]
effect on excessive axial elongation associated with form-deprivation myopia (in words) (daily intravitreal injection of 17 mM pirenzepine alone): significantly inhibited
